What follows are compounds tested against T1, HCMV polymerase (Human cytomegalovirus, UniProt P08546) (assay: HCMV polymerase assay (scintillation proximity assay)). Details: percentage of inhibition at 25 μM concentration in CMV polymerase assay.
T1 construct: made in house; host or cells: SF-9 insect cells infected with recombinant baculovirus
Assay type: biochemical
In short: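 Values are percent inhibition at 25 μM, measured by scintillation proximity after capture of biotinylated poly(dA)-oligo(dT) (6 nM) extended with 90 nM 3H-dTTP. Recombinant SF-9-derived enzyme reacted 30 min at 25 or 37 °C in HEPES pH 7.5/KCl/MgCl2/BSA buffer, ±2 mM CHAPS, before EDTA termination.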

T1 sequence (P08546 whole entry): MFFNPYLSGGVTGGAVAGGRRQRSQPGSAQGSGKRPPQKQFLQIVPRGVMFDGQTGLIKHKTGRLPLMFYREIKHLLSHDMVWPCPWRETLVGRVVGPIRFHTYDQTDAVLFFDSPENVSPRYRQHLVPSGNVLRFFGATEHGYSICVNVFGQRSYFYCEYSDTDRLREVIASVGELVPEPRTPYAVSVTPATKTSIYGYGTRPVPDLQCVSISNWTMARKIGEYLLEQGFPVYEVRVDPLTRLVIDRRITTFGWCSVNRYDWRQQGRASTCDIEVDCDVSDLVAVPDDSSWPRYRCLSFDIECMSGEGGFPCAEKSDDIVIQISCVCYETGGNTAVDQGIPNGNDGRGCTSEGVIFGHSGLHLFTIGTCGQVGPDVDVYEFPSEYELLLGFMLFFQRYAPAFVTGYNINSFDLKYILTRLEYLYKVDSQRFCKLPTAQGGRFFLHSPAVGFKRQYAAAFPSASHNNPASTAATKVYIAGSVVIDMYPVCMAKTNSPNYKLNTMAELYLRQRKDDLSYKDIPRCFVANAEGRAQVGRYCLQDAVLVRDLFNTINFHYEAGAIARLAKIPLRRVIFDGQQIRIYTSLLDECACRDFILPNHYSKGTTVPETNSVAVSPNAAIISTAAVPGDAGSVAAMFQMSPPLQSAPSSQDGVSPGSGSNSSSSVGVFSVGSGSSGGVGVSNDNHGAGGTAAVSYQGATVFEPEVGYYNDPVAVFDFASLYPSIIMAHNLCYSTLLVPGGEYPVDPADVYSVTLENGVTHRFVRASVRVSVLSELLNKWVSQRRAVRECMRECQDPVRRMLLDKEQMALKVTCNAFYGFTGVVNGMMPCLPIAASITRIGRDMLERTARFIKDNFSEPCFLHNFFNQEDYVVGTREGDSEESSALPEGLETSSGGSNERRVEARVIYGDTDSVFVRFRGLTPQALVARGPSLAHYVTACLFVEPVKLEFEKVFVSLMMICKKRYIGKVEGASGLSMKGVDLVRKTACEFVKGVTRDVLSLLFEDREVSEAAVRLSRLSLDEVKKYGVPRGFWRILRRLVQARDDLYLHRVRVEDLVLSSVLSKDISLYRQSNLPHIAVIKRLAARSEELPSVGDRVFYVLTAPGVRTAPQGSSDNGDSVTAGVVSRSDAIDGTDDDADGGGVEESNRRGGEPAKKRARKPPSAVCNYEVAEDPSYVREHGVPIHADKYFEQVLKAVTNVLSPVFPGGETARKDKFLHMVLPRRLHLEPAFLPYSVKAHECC

SMILES	inhibition at 25 µM [%]
CC(C)c1cc(C(C)C)c(C(=O)Nc2nnc(NCc3ccc(F)cc3)s2)c(C(C)C)c1 [compound 401, N-{5-[(4-fluorobenzyl)amino]-1,3,4-thiadiazol-2-yl}-2,4,6-triisopropylbenzamide]	25.5
O=C(Nc1nnc(NCc2cccc3ccccc23)s1)c1ccc(I)cc1 [compound 402, 4-iodo-N-{5-[(1-naphthylmethyl)amino]-1,3,4-thiadiazol-2-yl}benzamide]	25.5
CC1(C)C2CC[C@@H](CNc3nnc(NC(=O)c4cc5ccccc5s4)s3)C1C2 (stereo partly drawn) [compound 403, N-[5-({[(2R)-6,6-dimethylbicyclo[3.1.1]hept-2-yl]methyl}amino)-1,3,4-thiadiazol-2-yl]-1-benzothiophene-2-carboxamide]	25.3
O=C(Nc1nnc(NC2CCc3ccccc32)s1)c1ccc([N+](=O)[O-])o1 (stereo not drawn) [compound 404, N-[5-(2,3-dihydro-1H-inden-1-ylamino)-1,3,4-thiadiazol-2-yl]-5-nitro-2-furamide]	25.2
O=C(Nc1nnc(NCC2CCCO2)s1)c1cc2ccccc2s1 (stereo not drawn) [compound 405, N-{5-[(tetrahydro-2-furanylmethyl)amino]-1,3,4-thiadiazol-2-yl}-1-benzothiophene-2-carboxamide]	25
CCSCCNc1nnc(NC(=O)c2ccc(C(F)(F)F)cc2)s1 [compound 406, N-(5-{[2-(ethylsulfanyl)ethyl]amino}-1,3,4-thiadiazol-2-yl)-4-(trifluoromethyl)benzamide]	25
CC(C)(C)OC(=O)CCNc1nnc(NC(=O)c2ccc(C(F)(F)F)cc2)s1 [compound 407, tert-butyl 3-[(5-{[4-(trifluoromethyl)benzoyl]amino}-1,3,4-thiadiazol-2-yl)amino]propanoate]	25
O=C(Nc1nnc(NCCNc2ccccc2)s1)c1ccc(Cl)c(Cl)c1 [compound 408, N-{5-[(2-anilinoethyl)amino]-1,3,4-thiadiazol-2-yl}-3,4-dichlorobenzamide]	24.9
CC(C)c1cc(C(C)C)c(C(=O)Nc2nnc(NCC3CCCCC3)s2)c(C(C)C)c1 [compound 409, N-{5-[(cyclohexylmethyl)amino]-1,3,4-thiadiazol-2-yl}-2,4,6-triisopropylbenzamide]	24.9
CCCCCCCCCCCNc1nnc(NC(=O)c2c(Cl)cccc2Cl)s1 [compound 410, 2,6-dichloro-N-[5-(undecylamino)-1,3,4-thiadiazol-2-yl]benzamide]	24.9
O=C(Nc1nnc(NCCc2ccccc2)s1)c1cccc([N+](=O)[O-])c1 [compound 411, 3-nitro-N-[5-(phenethylamino)-1,3,4-thiadiazol-2-yl]benzamide]	24.8
CC(=O)NCCNc1nnc(NC(=O)c2cc3ccccc3s2)s1 [compound 412, N-(5-{[2-(acetylamino)ethyl]amino}-1,3,4-thiadiazol-2-yl)-1-benzothiophene-2-carboxamide]	24.7
O=C(Nc1nnc(NCCCCc2ccccc2)s1)c1cccc([N+](=O)[O-])c1 [compound 413, 3-nitro-N-{5-[(4-phenylbutyl)amino]-1,3,4-thiadiazol-2-yl}benzamide]	24.7
COc1ccccc1C(=O)Nc1nnc(NCc2ccc3c(c2)OCO3)s1 [compound 414, N-{5-[(1,3-benzodioxol-5-ylmethyl)amino]-1,3,4-thiadiazol-2-yl}-2-methoxybenzamide]	24.7
O=C(Nc1nnc(NCCc2ccccc2)s1)c1ccc(I)cc1 [compound 415, 4-iodo-N-[5-(phenethylamino)-1,3,4-thiadiazol-2-yl]benzamide]	24.6
O=C(Nc1nnc(NCc2ccc(Cl)c(Cl)c2)s1)c1ccc(F)cc1F [compound 416, N-{5-[(3,4-dichlorobenzyl)amino]-1,3,4-thiadiazol-2-yl}-2,4-difluorobenzamide]	24.5
O=C(Nc1nnc(NCc2cccnc2)s1)c1ccc(Cl)c(Cl)c1 [compound 417, 3,4-dichloro-N-{5-[(3-pyridinylmethyl)amino]-1,3,4-thiadiazol-2-yl}benzamide]	24.4
O=C(Nc1nnc(NC2CCCCCC2)s1)c1ccc(Cl)c(Cl)c1 [compound 418, 3,4-dichloro-N-[5-(cycloheptylamino)-1,3,4-thiadiazol-2-yl]benzamide]	24.4
O=C(Nc1nnc(NCCCN2CCCC2=O)s1)c1ccc(Br)cc1 [compound 419, 4-bromo-N-(5-{[3-(2-oxo-1-pyrrolidinyl)propyl]amino}-1,3,4-thiadiazol-2-yl)benzamide]	24.3
CC(C)(C)OC(=O)CCNc1nnc(NC(=O)c2ccc(Cl)c(Cl)c2)s1 [compound 420, tert-butyl 3-({5-[(3,4-dichlorobenzoyl)amino]-1,3,4-thiadiazol-2-yl}amino)propanoate]	24.1
O=C(/C=C/c1ccccc1)Nc1nnc(NCc2cccnc2)s1 [compound 421, (E)-3-phenyl-N-{5-[(3-pyridinylmethyl)amino]-1,3,4-thiadiazol-2-yl}-2-propenamide]	24
CN1CCN(CCCNc2nnc(NC(=O)/C=C/c3ccccc3Cl)s2)CC1 [compound 422, (E)-3-(2-chlorophenyl)-N-(5-{[3-(4-methylpiperazino)propyl]amino}-1,3,4-thiadiazol-2-yl)-2-propenamide]	24
O=C(Nc1nnc(NCc2ccc(F)cc2)s1)c1ccc(F)cc1F [compound 423, 2,4-difluoro-N-{5-[(4-fluorobenzyl)amino]-1,3,4-thiadiazol-2-yl}benzamide]	23.8
CC(C)c1cc(C(C)C)c(C(=O)Nc2nnc(NCc3cccs3)s2)c(C(C)C)c1 [compound 424, 2,4,6-triisopropyl-N-{5-[(2-thienylmethyl)amino]-1,3,4-thiadiazol-2-yl}benzamide]	23.6
O=C(Nc1nnc(NCc2cccs2)s1)c1ccc(I)cc1 [compound 425, 4-iodo-N-{5-[(2-thienylmethyl)amino]-1,3,4-thiadiazol-2-yl}benzamide]	23.5
CC(C)(C)OC(=O)CCNc1nnc(NC(=O)/C=C/c2ccccc2Cl)s1 [compound 426, tert-butyl 3-[(5-{[(E)-3-(2-chlorophenyl)-2-propenoyl]amino}-1,3,4-thiadiazol-2-yl)amino]propanoate]	23.5
O=C(Nc1nnc(NCCCN2CCCC2=O)s1)c1ccc(F)cc1F [compound 427, 2,4-difluoro-N-(5-{[3-(2-oxo-1-pyrrolidinyl)propyl]amino}-1,3,4-thiadiazol-2-yl)benzamide]	23.4
COc1ccccc1C(=O)Nc1nnc(NC2CCCc3ccccc32)s1 (stereo not drawn) [compound 428, 2-methoxy-N-[5-(1,2,3,4-tetrahydro-1-naphthalenylamino)-1,3,4-thiadiazol-2-yl]benzamide]	23.3
COc1ccccc1C(=O)Nc1nnc(NCCCCc2ccccc2)s1 [compound 429, 2-methoxy-N-{5-[(4-phenylbutyl)amino]-1,3,4-thiadiazol-2-yl}benzamide]	23.2
O=C(Nc1nnc(NCCc2cccs2)s1)c1ccc(I)cc1 [compound 430, 4-iodo-N-(5-{[2-(2-thienyl)ethyl]amino}-1,3,4-thiadiazol-2-yl)benzamide]	23.1
